Assay results from patent publication US9441012B2, “Fluorinated epoxyketone-based compounds and uses thereof as proteasome inhibitors” (FLUORINOV PHARMA INC., priority 2012, dated 2016).

What was measured:
[1] = test system: MOLT-4; assay: NCI 60 human tumor cell line screen (SRB); assay type: cell-based; settings: MOLT-4 (Leukemia); 48 h
[2] = test system: KMS-11; assay: Cell viability assay (MTS); assay type: cell-based; settings: Homo sapiens, 72 hours, mean ± standard deviation
Experimental: (§1) Human multiple myeloma cell lines 8226, H929, JJN3, KMH11, KMS11, KMS18, LP1, MM1S, OPM2 and U266 were grown in Iscove modified Dulbecco's medium (IMDM). Human leukemia cell lines K562, OCI-AML2 and U937 were cultured in RPMI-1640 medium. Primary peripheral blood mononuclear cells were isolated from multiple myeloma patients by Ficoll density gradient centrifugation and bone marrow aspirates were obtained from multiple myeloma patients at the Princess Margaret Cancer Centre of the University Health Network (UHN; Toronto, ON, Canada). Primary cells were cultured in IMDM. The collection and use of human tissue for this study were approved by the UHN institutional ethics review board. All cell culture media were obtained from the Ontario Cancer Institute Tissue Culture Media Facility (Toronto, ON, Canada) and were supplemented with 10% fetal calf serum, […] (Hyclone, Logan, Utah). All cells were grown in a humidified incubator at 37° C. with 5% CO2.
(§2) Cellular viability was primarily assessed by 3-(4,5-dimethylthiazol-2-yl)-5-(3-carboxymethoxyphenyl)-2-(4-sulfophenyl)-2H-tetrazolium (MTS) assay according to the manufacturer's instructions (Promega; Madison, Wis.). Cells were first seeded at a density of 10,000 cells per well in tissue culture-treated 96-well plates. Two hours after seeding, cells were treated with compounds for 72 hours at concentrations as indicated. As a control, cells were treated with DMSO alone in every assay plate. Following treatment and the MTS assay, cell viability was independently confirmed by reading the optical density (O.D.) at 490 nm and by exclusion of trypan blue stain (Invitrogen; Burlington, ON, Canada). The viability of primary mononuclear cells was determined by staining with Annexin V.
(§3) Table 9 summarizes data obtained for representative compounds of Formula I for cell viability and CT-L proteasome activity using OCI-AML-2 and KMS-11 cell lines.

[3] = test system: OCI-AML-2; assay: Cell viability assay (MTS); assay type: cell-based; settings: Homo sapiens, OCI-AML2, 72 hours, mean ± standard deviation
Experimental: as §1, §2, §3

[4] = test system: chymotrypsin-like (CT-L) proteasome activity, KMS-11; assay: Proteasome enzymatic activity (tumor cell lysates); assay type: biochemical, human; settings: KMS-11 cell lysate; mean ± standard deviation
Experimental: (§4) Cells were harvested by centrifugation at 1,200 rpm at room temperature. Cell pellets were washed with PBS and lysed with assay lysis buffer (50 mM HEPES (N-2-hydroxyethylpiperazine-N′-2-ethanesulfonic acid), pH 7.5; 150 mM NaCl; 1% Triton X-100; 2 mM ATP). Cell lysates were incubated on ice for 30 minutes, mixed by vortex every 5 minutes, and then centrifuged at 12,000 g for 10 minutes. The supernatant was transferred to a 96-well plate. For each assay, 10 μg of total protein were incubated for 1 hour at 37° C. with increasing concentrations (1 nM to 10 μM) of test compound diluted in assay buffer (50 mM Tris-HCl (tris(hydroxymethyl)aminomethane-HCl), pH 7.5; 150 mM NaCl). DMSO alone was used as a control in every assay plate. After incubation, a specific fluorogenic proteasome substrate was added to each assay reaction at a final concentration of 40 μM in a total volume of 100 μL. N-Succinyl-Leu-Leu-Val-Tyr-7-amino-4-methylcoumarin (Suc-Leu-Leu-Val-Tyr-AMC) was used for measuring chymotrypsin-like (CT-L) activity, t-butoxycarbonyl-Leu-Arg-Arg-7-amino-4-methylcoumarin (Boc-Leu-Arg-Arg-AMC) for trypsin-like (T-L) activity, and benzyloxycarbonyl-L-leucyl-L-leucyl-L-glutamyl-7-amino-4-methylcoumarin (Z-Leu-Leu-Glu-AMC) for caspase-like (C-L) activity. The excitation wavelength was set at 360 nm and the fluorescence emission wavelength of AMC was detected at 460 nm. The fluorescence of free AMC released during the enzymatic reaction was measured with a SpectraMax M5 fluorescent spectrophotometric plate reader (Molecular Devices, Sunnyvale, Calif.). AMC release rate was measured at 37° C. in a kinetic mode, recording every 5 minutes for 30 minutes. Experiments were performed in triplicate and repeated at least twice.
as §3

[5] = test system: chymotrypsin-like (CT-L) proteasome activity, OCI-AML-2; assay: Proteasome enzymatic activity (tumor cell lysates); assay type: biochemical, human; settings: OCI-AML-2 cell lysate; mean ± standard deviation
Experimental: as §4, §3

[6] = test system: SR; assay: NCI 60 human tumor cell line screen (SRB); assay type: cell-based; settings: SR (Leukemia); 48 h

In the case of Cc1ncc(C(=O)N[C@@H](COC(F)F)C(=O)N[C@@H](COC(F)F)C(=O)N[C@@H](Cc2ccccc2)C(=O)[C@@]2(C)CO2)s1 [Example 1, 2-methyl-thiazole-5-carboxylic acid ((S)-1-{(S)-1-[(S)-1-benzyl-2-((R)-2-methyloxiranyl)-2-oxo-ethylcarbamoyl]-2-difluoromethoxyethylcarbamoyl}-2-difluoromethoxyethyl)-amide], the Log10GI50 [1] is reported as −7.37, the Log10LC50 [1] is reported as >−4.00 and the Log10TGI50 [1] is reported as >−4.00. The IC50 [2] was 30.9 ± 10.7 nM, the IC50 [3] was 109 ± 25.3 nM and the IC50 [4] was 29.6 ± 3.69 nM. The IC50 [5] was 39.2 ± 2.12 nM, the Log10GI50 [6] was −7.30 and the Log10LC50 [6] was >−4.00. For the same molecule, the Log10TGI50 [6] was >−4.00.
For C[C@]1(C(=O)[C@H](Cc2ccccc2)NC(=O)[C@H](COC(F)F)NC(=O)[C@H](COC(F)F)NC(=O)CN2CCOCC2)CO1 [Example 26, (S)-N-{(S)-1-[(S)-1-Benzyl-2-((R)-2-methyl-oxiranyl)-2-oxo-ethylcarbamoyl]-2-difluoromethoxyethyl}-3-difluoromethoxy-2-(2-morpholin-4-yl-acetylamino)-propio-namide], the Log10GI50 [1] was −7.69, the Log10LC50 [1] was >−4.00 and the Log10TGI50 [1] was −7.11. It also gave an IC50 [2] of 99.7 ± 17.7 nM, an IC50 [3] of 223 ± 10.3 nM and an IC50 [4] of 174 ± 434 nM. For the same molecule, the IC50 [5] was 358 ± 177 nM, the Log10GI50 [6] was −7.71 and the Log10LC50 [6] was >−4.00. The Log10TGI50 [6] was >−4.00.
In the case of CC(C)C[C@H](NC(=O)[C@H](Cc1ccccc1)NC(=O)[C@H](COC(F)F)NC(=O)CN1CCOCC1)C(=O)[C@@]1(C)CO1 [Example 25, (2S)-2-[[(2S)-3-(difluoromethoxy)-2-[(2-morpholinoacetyl)amino]propanoyl]amino]-N-[(1S)-3-methyl-1-[(2R)-2-methyloxirane-2-carbonyl]butyl]-3-phenyl-propanamide], the Log10GI50 [1] is reported as −7.69, the Log10LC50 [1] is reported as >−4.00 and the Log10TGI50 [1] is reported as −7.11. The IC50 [2] was 39.5 ± 7.45 nM, the IC50 [3] was 55.6 ± 19.2 nM and the Log10GI50 [6] was −7.71. The Log10LC50 [6] was >−4.00 and the Log10TGI50 [6] was >−4.00.
With C[C@]1(C(=O)[C@H](Cc2ccccc2)NC(=O)[C@H](Cc2ccccc2)NC(=O)[C@H](COC(F)F)NC(=O)CN2CCOCC2)CO1 [Example 29] the Log10GI50 [1] was −7.54, the Log10LC50 [1] was >−4.00 and the Log10TGI50 [1] was −7.05. It also gave an IC50 [2] of 60.4 ± 11.2 nM, an IC50 [3] of 75.9 ± 15 nM and an IC50 [4] of 135 ± 12.3 nM. For the same molecule, the IC50 [5] was 132 ± 10.4 nM, the Log10GI50 [6] was −7.69 and the Log10LC50 [6] was >−4.00. For the same molecule, the Log10TGI50 [6] was −4.36.
